Experimental data from the NIST ThermoML archive (doi:10.1021/acs.jced.8b00070).
Numbers after ± are expanded uncertainties.

Conditions: 101.3 kPa, Liquid, Vibrating tube method

Compound `O` [water] has a mass density (323.15 K) of 988 ± 0.2 kg/m3, a mass density (328.15 K) of 985.7 ± 0.2 kg/m3 and a mass density (333.15 K) of 983.2 ± 0.2 kg/m3.
